Assays:
SPAK = SPAK (Homo sapiens, UniProt Q9UEW8); conditions: dose-dependent manner; literature (Yamada et al. 2016; Mori et al. 2013); cited from earlier work
WNK-SPAK binding = WNK-SPAK binding (Homo sapiens, UniProt Q9UEW8); conditions: literature (Mori et al. 2013); cited from earlier work
OSR1 = conditions: dose-dependent manner; literature (Yamada et al. 2016); cited from earlier work
5/6 Nx C57BL/6 mice = experiment: 5/6 nephrectomy with angiotensin II infusion via osmotic mini-pumps; type: in vivo; conditions: AngII- vs. vehicle-treated 5/6-Nx mice, 4 and 8 weeks postsurgery
Procedure: The 5/6 nephrectomy (5/6 Nx) was performed in two stages (Leelahavanichkul A et al., Kidney Int. 78, 2010. 1136-1153) under isoflurane anesthesia (Fig. 1A). Pain was managed by s.c. injections of buprenorphine, metamizol and meloxicam. Additionally, the animals were treated for 3 days postsurgery with the analgesic piritramid via the drinking water, starting 6 h postsurgery. At the first stage (wk -1), the left kidney was decapsulated to avoid ureter and adrenal damage, and the upper and lower poles were partially resected via a left flank incision. Bleeding was controlled by microfibrillar collagen hemostasis (Avitene, Davol, Cranston, RI). The upper and lower poles were weighed. One week later, the entire right kidney was removed via a right flank incision and weighed. Animals with insufficient kidney resection as determined by a ratio of < 0.55 for the removed left kidney weight to the removed right kidney weight were euthanized. In the Sham surgery control mice, a left flank incision was performed at step 1, both poles of kidney were identified, then the flank incision was closed; a subsequent right flank incision was performed at step 2; the right renal artery was identified, then the flank incision was closed. After each flank incision, muscles and skin were repositioned and sewed. Mortality was tracked throughout the study. Necropsy was not performed on animals that died early.
Angiotensin II (Ang II) 0.75 µg/kg/min (Sigma) in physiological saline or vehicle was infused by subcutaneous osmotic mini-pumps (Alzet model 1004, Cupertino, CA) (Leelahavanichkul A et al., Kidney Int. 78, 2010. 1136-1153). The osmotic minipumps were inserted subcutaneously at the back under isoflurane anesthesia at 5 days after right NX or Sham surgery (Fig. 1A).
In order to test susceptibility of C57BL/6 mice to 5/6 nephrectomy (5/6-Nx)- and angiotensin II (AngII) infusion-induced CKD, 5/6-Nx was performed and osmotic minipumps continuously releasing vehicle or AngII were thereafter implanted into male wild-type (WT) C57Bl/6 mice, which were then monitored over 8 weeks after 5/6-Nx. All mice were maintained on rescue diet.

renal distal tubules [1] = experiment: Intracellular Ca2+ imaging by 2-photon microscopy in Fluo-4-loaded live kidney slices ex vivo; type: cell-based, mice; conditions: co-treatment with 200 ng/ml rFGF23, 2 h, iFGFR pan 120 nM
Procedure: (§1) The preparation of kidney slices for ex vivo experiments was performed as described in Andrukhova O et al. (EMBO J., 2014. 33, 229-246). Longitudinal 200-µm-thick live slices from freshly isolated kidneys of 3-month-old male WT and Klotho/VDR mice were prepared using a Leica VT1000 Vibratome (Leica Microsystems), and were used for ex vivo treatment with various substances as described below.
(§2) Longitudinal 200-µm-thick live slices of freshly isolated kidneys were prepared using a Leica VT1000 Vibratome (Leica Microsystems). For Na^+ imaging, the kidney slices of WT and Klotho/VDR mice were incubated for 60 min at 37°C with 2 µM of the sodium-sensitive dye SBFI (Molecular Probes), diluted in DMSO (Merck Millipore International) and 20% Pluronic (Merck Millipore International). For Ca^2+ imaging, the kidney slices were incubated for 30 min at 37°C with 2 µM of the calcium-sensitive dye Fluo-4 (Molecular Probes), diluted in DMSO and 20% Pluronic. Thereafter, the slices were washed two times for 20 min each in 0.1M PBS, and were subsequently incubated in vitro with vehicle (PBS), rFGF23 R176/179Q [(100 or 200 ng/ml) kindly provided by Amgen Inc., Thousand Oaks, CA, USA], PD173074 (Sigma-Aldrich) (10 nM for inhibiting FGFR1 and 25 nM for inhibiting FGFR1 and 3), pan FGFR inhibitor [(120 nM) FIIN1 hydrochloride, Tocris Bioscience, Bristol, UK)], WNK signalling inhibitor Closantel (30 ng/mL, generous gift of Dario R. Alessi) alone or combined at 37°C, 5% CO2 / 95% air humidified atmosphere for 2 h. […] For visualization of intracellular Na^+ and Ca^2+ content, SBFI or Fluo-4 were excited by a Ti:sapphire laser (Chameleon, Coherent Inc.) at 820 nm. Images (512 × 512 pixels) were acquired every 30 sec at a depth of 60 - 80 µm. Fluorescence images were analyzed using Image J software. The whole epithelial layer of the distal tubules was selected by manually drawing the region of interest (ROI) to quantify intracellular Na^+ and Ca^2+ levels. Fluorescence intensity was quantified in 4-9 ROIs per image, and the ratio between the fluorescence intensity and the ROI area was calculated for each tubule. This ratio was used for all subsequent calculations.
(§3) To gain more insight into the functional role of the rFGF23-induced increase in distal renal tubular ion channel expression and the FGF receptors involved, we performed intracellular Ca^2+ and Na^+ imaging by 2-photon microscopy in Fluo-4- or SFBI-loaded and subsequently rFGF23-treated (100 or 200 ng/ml for 2 h), 200-µm-thick renal slices prepared from WT and Klotho/VDR mice.
(§4) In this example it was assessed whether the Klotho-independent FGF23 signalling pathway is mediated through FGFR3 and/or 4, given that FGFR2 expression was low in distal renal tubules (Figure 12A). To dissect between the latter receptors, Klotho/VDR kidney slices were treated with rFGF23 alone or in combination with an FGFR1/FGFR3 inhibitor and the WNK signalling inhibitor closantel.

renal distal tubules [2] = experiment: Intracellular Na+ imaging by 2-photon microscopy in SBFI-loaded live kidney slices ex vivo; type: cell-based, mice; conditions: for rFGF23-induced increase in intracellular Na^+ fluorescence (distal tubular Na^+ uptake): co-treatment with 200 ng/ml rFGF23, 2 h, iFGFR pan 120 nM; for decrease of SFBI fluorescence intensity in distal tubules: rFGF23-treated WT kidney slices, CTZ 10 µM
Procedure: as §1, §2, §3, §4

TRPV5 = TRPV5 (Homo sapiens, UniProt Q9NQA5); conditions: 1 µM; literature (Nilius et al. 2001); cited from earlier work
Sequence of TRPV5 (Q9NQA5 whole entry, species assumed): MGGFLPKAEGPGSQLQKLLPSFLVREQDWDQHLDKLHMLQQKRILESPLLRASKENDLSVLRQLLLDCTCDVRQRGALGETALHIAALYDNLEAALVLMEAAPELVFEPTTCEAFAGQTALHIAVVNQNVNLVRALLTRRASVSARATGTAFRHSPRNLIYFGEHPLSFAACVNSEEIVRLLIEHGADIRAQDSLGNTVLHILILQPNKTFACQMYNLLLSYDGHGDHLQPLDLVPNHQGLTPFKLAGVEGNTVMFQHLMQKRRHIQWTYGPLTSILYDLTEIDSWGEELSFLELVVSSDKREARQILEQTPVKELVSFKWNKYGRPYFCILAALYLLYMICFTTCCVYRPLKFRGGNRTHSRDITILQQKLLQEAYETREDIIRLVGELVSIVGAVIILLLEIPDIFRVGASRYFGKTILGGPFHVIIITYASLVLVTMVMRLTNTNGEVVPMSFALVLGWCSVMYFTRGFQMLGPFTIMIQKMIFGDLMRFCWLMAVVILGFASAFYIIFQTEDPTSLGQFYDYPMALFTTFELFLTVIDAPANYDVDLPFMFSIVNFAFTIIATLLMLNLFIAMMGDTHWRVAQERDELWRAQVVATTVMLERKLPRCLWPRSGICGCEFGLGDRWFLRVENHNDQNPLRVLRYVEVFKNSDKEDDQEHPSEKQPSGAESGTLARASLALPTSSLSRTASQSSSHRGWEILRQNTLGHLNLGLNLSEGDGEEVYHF

TRPV6 = target: T1, TRPV6 (Homo sapiens, UniProt Q9H1D0); conditions: 1 µM; literature (Nilius et al. 2001); cited from earlier work
T1 sequence (Q9H1D0 1-765): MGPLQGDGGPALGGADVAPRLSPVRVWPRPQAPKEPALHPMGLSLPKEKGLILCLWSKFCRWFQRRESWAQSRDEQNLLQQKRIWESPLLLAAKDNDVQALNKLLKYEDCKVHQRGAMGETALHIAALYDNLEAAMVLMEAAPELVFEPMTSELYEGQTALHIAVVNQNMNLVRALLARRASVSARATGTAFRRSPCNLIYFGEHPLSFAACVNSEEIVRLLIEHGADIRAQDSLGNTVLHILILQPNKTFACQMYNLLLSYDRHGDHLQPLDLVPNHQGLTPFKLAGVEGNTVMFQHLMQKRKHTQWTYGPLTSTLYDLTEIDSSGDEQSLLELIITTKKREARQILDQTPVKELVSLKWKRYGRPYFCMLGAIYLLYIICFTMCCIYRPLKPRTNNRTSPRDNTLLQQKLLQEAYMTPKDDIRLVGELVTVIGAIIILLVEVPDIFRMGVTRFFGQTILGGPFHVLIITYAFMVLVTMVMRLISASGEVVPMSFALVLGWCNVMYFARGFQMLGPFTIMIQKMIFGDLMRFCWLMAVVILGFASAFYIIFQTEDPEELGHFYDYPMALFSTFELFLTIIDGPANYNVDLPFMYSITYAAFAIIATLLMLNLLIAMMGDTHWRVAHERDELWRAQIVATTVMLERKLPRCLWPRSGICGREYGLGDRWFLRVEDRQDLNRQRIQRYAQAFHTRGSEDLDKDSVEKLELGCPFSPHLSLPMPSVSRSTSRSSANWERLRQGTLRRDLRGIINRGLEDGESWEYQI

[3] = Klotho/VDR kidney slices, ruthenium red 10 µM, closantel 30 ng/mL, PD173074 10 nM (iFGFR1) or 25 nM (FGFR1/3)
[4] = WT kidney slices, ruthenium red 1 µM, iFGFR1 PD173074 10 nM
[5] = Klotho/VDR kidney slices, closantel 30 ng/mL, BF 15 µM, PD173074 10 nM (iFGFR1) or 25 nM (FGFR1/3)
[6] = WT kidney slices, iFGFR1 PD173074 10 nM

## CCOc1ccc2nc3cc(NCc4ccco4)ccc3c(N)c2c1 [STOCK2S-26016, 7-Ethoxy-N3-(2-furanylmethyl)-3,9-acridinediamine]
SPAK
  SPAK phosphorylation: preventing
WNK-SPAK binding
  WNK-SPAK binding: preventing

## CC(C)(C)NC(=O)c1cncn1C1CCN(c2ccc(-c3nnc(C(F)(F)F)o3)cn2)CC1 [WNK463, N-tert-butyl-3-[1-[5-[5-(trifluoromethyl)-1,3,4-oxadiazol-2-yl]pyridin-2-yl]piperidin-4-yl]imidazole-4-carboxamide]
SPAK
  SPAK phosphorylation: decreases
OSR1
  OSR1 phosphorylation: decreases

## Angiotensin II (DRVYIHPF; Angiotensin-2; UniProt P01019 25-32, looked up) [AngII, Angiotensin II (Sigma) infused by subcutaneous osmotic mini-pumps]
5/6 Nx C57BL/6 mice; 0.75 µg/kg/min s.c. infusion
  GFR: no significant differences
5/6 Nx C57BL/6 mice
  azotemia: no significant differences
  mean arterial pressure measured by arterial catheterization: no significant differences
  proteinuria: no significant differences

## C=CC(=O)Nc1cccc(CN2C(=O)N(c3c(Cl)c(OC)cc(OC)c3Cl)Cc3cnc(NCCCCN(CC)CC)nc32)c1.Cl [iFGFR pan, FIIN1 hydrochloride]
Renal distal tubules [1]; [3]
  rFGF23-induced increase in intracellular Ca^2+ fluorescence (distal tubular Ca^2+ uptake): completely blocked
Renal distal tubules [1]; [4]
  rFGF23-induced increase in intracellular Ca^2+ fluorescence (distal tubular Ca^2+ uptake): completely blocked
Renal distal tubules [2]; [5]
  rFGF23-induced increase in intracellular Na^+ fluorescence (distal tubular Na^+ uptake): completely blocked
Renal distal tubules [2]; [6]
  rFGF23-induced increase in intracellular Na^+ fluorescence (distal tubular Na^+ uptake): completely blocked

## CCCCNc1cc(C(=O)O)cc(S(N)(=O)=O)c1Oc1ccccc1 [BF, bumetanide]
Renal distal tubules [2]; [5]
  rFGF23-induced increase in intracellular Na^+ fluorescence (distal tubular Na^+ uptake): inhibited
Renal distal tubules [2]; BF 15 µM
  decrease of SFBI fluorescence intensity in distal tubules: approximately 50%

## NS(=O)(=O)c1cc2c(cc1Cl)N=CNS2(=O)=O [CTZ, chlorothiazide]
Renal distal tubules [2]; BF 15 µM
  decrease of SFBI fluorescence intensity in distal tubules: approximately 50%

## N.N.N.N.N.N.N.N.N.N.N.N.N.N.[Cl-].[Cl-].[Cl-].[Cl-].[Cl-].[Cl-].[O-2].[O-2].[Ru+3].[Ru+3].[Ru+4] [ruthenium red]
Renal distal tubules [1]; [3]
  rFGF23-induced increase in intracellular Ca^2+ fluorescence (distal tubular Ca^2+ uptake): antagonize
Renal distal tubules [1]; [4]
  rFGF23-induced increase in intracellular Ca^2+ fluorescence (distal tubular Ca^2+ uptake): reversed
TRPV5
  TRPV5 channel function: block
TRPV6
  TRPV6 channel function: not

## CCN(CC)CCCCNc1ncc2cc(-c3cc(OC)cc(OC)c3)c(NC(=O)NC(C)(C)C)nc2n1 [iFGFR1, PD173074]
Renal distal tubules [1]; [3]
  rFGF23-induced increase in intracellular Ca^2+ fluorescence (distal tubular Ca^2+ uptake): no effect
Renal distal tubules [1]; Klotho/VDR kidney slices, ruthenium red 10 µM, closantel 30 ng/mL, PD173074 10 nM (iFGFR1) or 25 nM (FGFR1/3), listed as FGFR1/3 inhibitor
  rFGF23-induced increase in intracellular Ca^2+ fluorescence (distal tubular Ca^2+ uptake): partially blocked
Renal distal tubules [1]; [4]
  rFGF23-induced increase in intracellular Ca^2+ fluorescence (distal tubular Ca^2+ uptake): largely blocked
Renal distal tubules [2]; [5]
  rFGF23-induced increase in intracellular Na^+ fluorescence (distal tubular Na^+ uptake): no effect
Renal distal tubules [2]; Klotho/VDR kidney slices, closantel 30 ng/mL, BF 15 µM, PD173074 10 nM (iFGFR1) or 25 nM (FGFR1/3), listed as FGFR1/3 inhibitor
  rFGF23-induced increase in intracellular Na^+ fluorescence (distal tubular Na^+ uptake): completely blocked
Renal distal tubules [2]; [6]
  rFGF23-induced increase in intracellular Na^+ fluorescence (distal tubular Na^+ uptake): largely blocked
